Assay: Diet induced metabolic syndrome model in SD rats (body weight, fat tissue weight, serum lipids)
Assay type: in vivo, Sprague Dawley Rats
Conditions: end of 8 weeks treatment, Composition-1 250 mg/kg or sibutramine 7 mg/kg (FIG. 6A)
Method: The extracts of Holoptelea integrifolia were then combined with other herbal extracts and tested for their efficacy. […] The Metabolic syndrome was induced in Sprague Dawley Rats by feeding the rats high fat and high cholesterol diet containing roasted bengal gram, sucrose, milk powder, mineral salt mixture, yeast, butter, groundnut oil and cholesterol for 8 weeks. Following 8 weeks induction phase, the animals were treated daily either with 250 mg/kg body weight of composition-1 or 7 mg/kg body weight of sibutramine in 10 mL of 0.5% CMC for further 8 weeks. The control group of animals were received only the vehicle (10 mL of 0.5% CMC) during this period.
Animals were acclimatized for 7 days prior to study initiation. […]
Following 8 weeks induction phase, the animals were treated orally with 250 mg/kg body weight of Composition-1 or 7 mg/kg body weight of sibutramine in 10 mL of 0.5% CMC for further 8 weeks. […] Body weight of individual animal was recorded weekly in the entire duration of the study. […]
Various biochemical parameters including lipid profile were tested using biochemistry reagents supplied by Human, Germany, in an automated clinical chemistry analyzer HumaStar300, Make: Human, Germany. Mean values of the biochemical parameters estimated before induction, after induction/before treatment and after treatment were measured and compared.

Compound: CC(C)CC(N(C)C)C1(c2ccc(Cl)cc2)CCC1 (stereo not shown) [Sibutramine]
- serum cholesterol levels: statistically significant reduction
